Measurements as given in ChEMBL document CHEMBL1255229, “Novel antimicrobial peptides that exhibit activity against select agents and other drug resistant bacteria” (2010).
Converted amounts (≈) assume the structure as drawn. Starred links: 1 amine or outer side, 2 acyl side, 3 side chain; linkers in the order of their positions; H or OH if unused. Non-standard residues stand in square brackets, D forms with d. Residues, ends and D or L forms follow the SMILES beside them. ξ: configuration not given here. Pro(3ξ,4ξ-(CH2)4) = O=C(O)[C@H]1NCC2CCCCC21; Oic = O=C(O)[C@@H]1C[C@@H]2CCCC[C@@H]2N1; X1 = O=C([C@@H]1CN([*:1])C2CCCCC21)[*:2]; X3 = O=C(C[C@H]1C2CCCCC2CN1[*:1])[*:2]; Tic = O=C(O)[C@@H]1Cc2ccccc2CN1; Orn = NCCC[C@H](N)C(=O)O; Dap = NC[C@H](N)C(=O)O; Ahx = NCCCCCC(=O)O; βAla = NCCC(=O)O

Tests used:
Type in all cases: functional
[1] = system: Acinetobacter baumannii; assay: Antimicrobial activity against Acinetobacter baumannii ATCC 19606 after 24 hrs; settings: ATCC 19606 = CIP 70.34 = JCM 6841, 24 h
[2] = system: Acinetobacter baumannii; assay: Antimicrobial activity against Acinetobacter baumannii WRAIR after 24 hrs
[3] = system: Staphylococcus aureus; assay: Antimicrobial activity against methicillin-resistant Staphylococcus aureus ATCC 33591 after 24 hrs; settings: ATCC 33591, 24 h
[4] = system: Yersinia pestis; assay: Antimicrobial activity against Yersinia pestis CO92 after 24 hrs; settings: CO92, 24 h
[5] = system: Brucella melitensis; assay: Antimicrobial activity against Brucella melitensis 16 M after 24 hrs
[6] = system: Brucella abortus; assay: Antimicrobial activity against Brucella abortus 2308 after 24 hrs; settings: Brucella abortus, 2308, 24 h
[7] = system: Brucella suis; assay: Antimicrobial activity against Brucella suis ATCC 23445 after 24 hrs; settings: ATCC 23445, 24 h
[8] = system: Bacillus anthracis; assay: Antimicrobial activity against Bacillus anthracis Ames after 24 hrs
[9] = system: Francisella tularensis; assay: Antimicrobial activity against Francisella tularensis SCHU-S4 after 24 hrs; settings: SCHU-S4, 24 h
[10] = system: Burkholderia mallei; assay: Antimicrobial activity against Burkholderia mallei ATCC 23444 after 24 hrs; settings: ATCC 23444, 24 h
[11] = system: Burkholderia pseudomallei; assay: Antimicrobial activity against Burkholderia pseudomallei BURK003(1026b) after 24 hrs

Structure (SMILES)	MIC [1] [µM]	MIC [2] [µM]	MIC [3] [µM]	MIC [4] [µM]	MIC [5] [µM]	MIC [6] [µM]	MIC [7] [µM]	MIC [8] [µM]	MIC [9] [µM]	MIC [10] [µM]	MIC [11] [µM]
CC(=O)N[C@@H](Cc1ccccc1)C(=O)N1Cc2ccccc2C[C@H]1C(=O)N1CC2CCCCC2[C@H]1C(=O)N[C@@H](CCCCN)C(=O)N1Cc2ccccc2C[C@H]1C(=O)N1CC2CCCCC2[C@H]1C(=O)N[C@@H](Cc1ccccc1)C(=O)N1Cc2ccccc2C[C@H]1C(=O)N1CC2CCCCC2[C@H]1C(=O)N[C@@H](CCCCN)C(=O)N1Cc2ccccc2C[C@H]1C(=O)N[C@@H](CCCCN)C(=O)N[C@@H](CCCCN)C(=O)N[C@@H](CCCCN)C(=O)N[C@@H](CCCCN)C(=O)N[C@@H](CCCCN)C(=O)N[C@@H](CCCCN)C(N)=O (some centres undefined) (Ac-F[Tic][Pro(3ξ,4ξ-(CH2)4)]K[Tic][Pro(3ξ,4ξ-(CH2)4)]F[Tic][Pro(3ξ,4ξ-(CH2)4)]K[Tic]KKKKKK-NH2)	6.3 (≈ 15.6 µg/mL)	6.3 (≈ 15.6 µg/mL)	25.3 (≈ 62.5 µg/mL)	101 (≈ 249 µg/mL)	202 (≈ 499 µg/mL)	101 (≈ 249 µg/mL)	13 (≈ 32.1 µg/mL)	0.75 (≈ 1.85 µg/mL)	202 (≈ 499 µg/mL)	202 (≈ 499 µg/mL)	202 (≈ 499 µg/mL)
CC(=O)NCC(=O)N[C@@H](Cc1ccccc1)C(=O)N[C@@H](Cc1ccccc1)C(=O)N1CC2CCCCC2[C@H]1C(=O)NCC(=O)N[C@@H](CCCCN)C(=O)N[C@@H](Cc1ccccc1)C(=O)N1CC2CCCCC2[C@H]1C(=O)NCC(=O)N[C@@H](Cc1ccccc1)C(=O)N[C@@H](Cc1ccccc1)C(=O)N1CC2CCCCC2[C@@H]1CC(=O)N[C@@H](CCCCN)C(=O)N[C@@H](Cc1ccccc1)C(=O)N[C@@H](CCCCN)C(=O)N[C@@H](CCCCN)C(=O)N[C@@H](CCCCN)C(=O)N[C@@H](CCCCN)C(N)=O (some centres undefined) (Ac-GFF[Pro(3ξ,4ξ-(CH2)4)]GKF[Pro(3ξ,4ξ-(CH2)4)]GFF[X3]KFKKKK-NH2)	3.2 (≈ 7.52 µg/mL)	3.2 (≈ 7.52 µg/mL)	208 (≈ 489 µg/mL)	3.2 (≈ 7.52 µg/mL)	26 (≈ 61.1 µg/mL)	26 (≈ 61.1 µg/mL)	26 (≈ 61.1 µg/mL)	0.2 (≈ 0.47 µg/mL)	0.01 (≈ 0.0235 µg/mL)	208 (≈ 489 µg/mL)	208 (≈ 489 µg/mL)
CC(=O)NCC(=O)N[C@@H](Cc1ccccc1)C(=O)N1Cc2ccccc2C[C@H]1C(=O)N1[C@H](C(=O)NCC(=O)N[C@@H](CCCCN)C(=O)N2Cc3ccccc3C[C@H]2C(=O)N2[C@H](C(=O)NCC(=O)N[C@@H](Cc3ccccc3)C(=O)N3Cc4ccccc4C[C@H]3C(=O)N3[C@H](C(=O)NCC(=O)N[C@@H](CCCCN)C(=O)N4Cc5ccccc5C[C@H]4C(=O)N[C@@H](CCCCN)C(=O)N[C@@H](CCCCN)C(=O)N[C@@H](CCCCN)C(=O)N[C@@H](CCCCN)C(N)=O)C[C@@H]4CCCC[C@@H]43)C[C@@H]3CCCC[C@@H]32)C[C@@H]2CCCC[C@@H]21 (Ac-GF[Tic][Oic]GK[Tic][Oic]GF[Tic][Oic]GK[Tic]KKKK-NH2)	3.2 (≈ 7.81 µg/mL)	3.2 (≈ 7.81 µg/mL)	205 (≈ 500 µg/mL)	205 (≈ 500 µg/mL)	205 (≈ 500 µg/mL)	205 (≈ 500 µg/mL)	205 (≈ 500 µg/mL)	12.8 (≈ 31.2 µg/mL)	100 (≈ 244 µg/mL)	205 (≈ 500 µg/mL)	205 (≈ 500 µg/mL)
CC(=O)NCC(=O)N[C@@H](Cc1ccccc1)C(=O)N1Cc2ccccc2C[C@H]1C(=O)N1[C@H](C(=O)NCC(=O)N[C@@H](CN)C(=O)N2Cc3ccccc3C[C@H]2C(=O)N2[C@H](C(=O)NCC(=O)N[C@@H](Cc3ccccc3)C(=O)N3Cc4ccccc4C[C@H]3C(=O)N3[C@H](C(=O)NCC(=O)N[C@@H](CN)C(=O)N4Cc5ccccc5C[C@H]4C(=O)N[C@@H](CN)C(=O)N[C@@H](CN)C(=O)N[C@@H](CN)C(=O)N[C@@H](CN)C(N)=O)C[C@@H]4CCCC[C@@H]43)C[C@@H]3CCCC[C@@H]32)C[C@@H]2CCCC[C@@H]21 (Ac-GF[Tic][Oic]G[Dap][Tic][Oic]GF[Tic][Oic]G[Dap][Tic][Dap][Dap][Dap][Dap]-NH2)	3.6 (≈ 7.88 µg/mL)	3.6 (≈ 7.88 µg/mL)	114 (≈ 249 µg/mL)	228 (≈ 499 µg/mL)	228 (≈ 499 µg/mL)	228 (≈ 499 µg/mL)	228 (≈ 499 µg/mL)	14.8 (≈ 32.4 µg/mL)	228 (≈ 499 µg/mL)	228 (≈ 499 µg/mL)	228 (≈ 499 µg/mL)
CC(=O)NCC(=O)N[C@@H](Cc1ccccc1)C(=O)N1Cc2ccccc2C[C@H]1C(=O)N1C[C@@H](C(=O)NCC(=O)N[C@@H](CCCCN)C(=O)N2Cc3ccccc3C[C@H]2C(=O)N2C[C@@H](C(=O)NCC(=O)N[C@@H](Cc3ccccc3)C(=O)N3Cc4ccccc4C[C@H]3C(=O)N3C[C@@H](C(=O)NCC(=O)N[C@@H](CCCCN)C(=O)N4Cc5ccccc5C[C@H]4C(=O)N[C@@H](CCCCN)C(=O)N[C@@H](CCCCN)C(=O)N[C@@H](CCCCN)C(N)=O)C4CCCCC43)C3CCCCC32)C2CCCCC21 (some centres undefined) (Ac-GF[Tic][X1]GK[Tic][X1]GF[Tic][X1]GK[Tic]KKK-NH2)	6.7 (≈ 15.5 µg/mL)	3.4 (≈ 7.86 µg/mL)	54 (≈ 125 µg/mL)	27 (≈ 62.4 µg/mL)	54 (≈ 125 µg/mL)	27 (≈ 62.4 µg/mL)	> 216	27 (≈ 62.4 µg/mL)	0.02 (≈ 0.0463 µg/mL)	0.02 (≈ 0.0463 µg/mL)	0.02 (≈ 0.0463 µg/mL)
CC(=O)NCC(=O)N[C@@H](Cc1ccccc1)C(=O)N1Cc2ccccc2C[C@H]1C(=O)N1C[C@@H](C(=O)NCC(=O)N[C@@H](CCCCN)C(=O)N2Cc3ccccc3C[C@H]2C(=O)N2C[C@@H](C(=O)NCC(=O)N[C@@H](Cc3ccccc3)C(=O)N3Cc4ccccc4C[C@H]3C(=O)N3C[C@@H](C(=O)NCC(=O)N[C@@H](CCCCN)C(=O)N4Cc5ccccc5C[C@H]4C(=O)NCCCCCC(=O)N[C@@H](CCCCN)C(=O)N[C@@H](CCCCN)C(=O)N[C@@H](CCCCN)C(=O)N[C@@H](CCCCN)C(N)=O)C4CCCCC43)C3CCCCC32)C2CCCCC21 (some centres undefined) (Ac-GF[Tic][X1]GK[Tic][X1]GF[Tic][X1]GK[Tic][Ahx]KKKK-NH2)	3 (≈ 7.66 µg/mL)	6.1 (≈ 15.6 µg/mL)	196 (≈ 501 µg/mL)	48.9 (≈ 125 µg/mL)	196 (≈ 501 µg/mL)	196 (≈ 501 µg/mL)	196 (≈ 501 µg/mL)	48.9 (≈ 125 µg/mL)	196 (≈ 501 µg/mL)	196 (≈ 501 µg/mL)	196 (≈ 501 µg/mL)
CC(=O)NCC(=O)N[C@@H](Cc1ccccc1)C(=O)N1Cc2ccccc2C[C@H]1C(=O)N1C[C@@H](C(=O)NCC(=O)N[C@@H](CCCCN)C(=O)N2Cc3ccccc3C[C@H]2C(=O)N2C[C@@H](C(=O)NCC(=O)N[C@@H](Cc3ccccc3)C(=O)N3Cc4ccccc4C[C@H]3C(=O)N3C[C@@H](C(=O)NCC(=O)N[C@@H](CCCCN)C(=O)N4Cc5ccccc5C[C@H]4C(=O)N[C@@H](CCCN)C(=O)N[C@@H](CCCN)C(=O)N[C@@H](CCCN)C(=O)N[C@@H](CCCN)C(N)=O)C4CCCCC43)C3CCCCC32)C2CCCCC21 (some centres undefined) (Ac-GF[Tic][X1]GK[Tic][X1]GF[Tic][X1]GK[Tic][Orn][Orn][Orn][Orn]-NH2)	6.5 (≈ 15.5 µg/mL)	6.5 (≈ 15.5 µg/mL)	52.4 (≈ 125 µg/mL)	26.2 (≈ 62.5 µg/mL)	104 (≈ 248 µg/mL)	209 (≈ 498 µg/mL)	13 (≈ 31 µg/mL)	0.81 (≈ 1.93 µg/mL)	105 (≈ 250 µg/mL)	209 (≈ 498 µg/mL)	209 (≈ 498 µg/mL)
CC(=O)NCC(=O)N[C@@H](Cc1ccccc1)C(=O)N1Cc2ccccc2C[C@H]1C(=O)N1C[C@@H](C(=O)NCC(=O)N[C@@H](CCCCN)C(=O)N2Cc3ccccc3C[C@H]2C(=O)N2C[C@@H](C(=O)NCC(=O)N[C@@H](Cc3ccccc3)C(=O)N3Cc4ccccc4C[C@H]3C(=O)N3C[C@@H](C(=O)NCC(=O)N[C@@H](CCCCN)C(=O)N4Cc5ccccc5C[C@H]4C(=O)NCCC(=O)N[C@@H](CCCCN)C(=O)N[C@@H](CCCCN)C(=O)N[C@@H](CCCCN)C(=O)N[C@@H](CCCCN)C(N)=O)C4CCCCC43)C3CCCCC32)C2CCCCC21 (some centres undefined) (Ac-GF[Tic][X1]GK[Tic][X1]GF[Tic][X1]GK[Tic][βAla]KKKK-NH2)	6.2 (≈ 15.6 µg/mL)	6.2 (≈ 15.6 µg/mL)	199 (≈ 500 µg/mL)	199 (≈ 500 µg/mL)	199 (≈ 500 µg/mL)	199 (≈ 500 µg/mL)	199 (≈ 500 µg/mL)	12.4 (≈ 31.2 µg/mL)	199 (≈ 500 µg/mL)	199 (≈ 500 µg/mL)	199 (≈ 500 µg/mL)
CC(=O)NCC(=O)N[C@@H](Cc1ccccc1)C(=O)N1Cc2ccccc2C[C@H]1C(=O)N1C[C@@H](C(=O)NCC(=O)N[C@@H](CCCNC(=N)N)C(=O)N2Cc3ccccc3C[C@H]2C(=O)N2C[C@@H](C(=O)NCC(=O)N[C@@H](Cc3ccccc3)C(=O)N3Cc4ccccc4C[C@H]3C(=O)N3C[C@@H](C(=O)NCC(=O)N[C@@H](CCCNC(=N)N)C(=O)N4Cc5ccccc5C[C@H]4C(=O)N[C@@H](CCCNC(=N)N)C(=O)N[C@@H](CCCNC(=N)N)C(=O)N[C@@H](CCCNC(=N)N)C(=O)N[C@@H](CCCNC(=N)N)C(N)=O)C4CCCCC43)C3CCCCC32)C2CCCCC21 (some centres undefined) (Ac-GF[Tic][X1]GR[Tic][X1]GF[Tic][X1]GR[Tic]RRRR-NH2)	5.98 (≈ 15.6 µg/mL)	24 (≈ 62.6 µg/mL)	96 (≈ 250 µg/mL)	192 (≈ 501 µg/mL)	192 (≈ 501 µg/mL)	192 (≈ 501 µg/mL)	192 (≈ 501 µg/mL)	5.98 (≈ 15.6 µg/mL)	192 (≈ 501 µg/mL)	192 (≈ 501 µg/mL)	192 (≈ 501 µg/mL)
